Data on 6 molecules can be found in patent US11076597B2, “High stress resistant plant growth regulator and preparation method and use thereof” (SHANGHAI INSTITUTES FOR BIOLOGICAL SCIENCES, CHINESE …, priority 2015, dated 2021).

“Also recorded” adds a separate entry of the source.

In assay [1] the target is T1, PYL2 receptor-HAB1 protein phosphatase complex (Arabidopsis thaliana, UniProt O80992).
T1 construct: made in house; host or cells: E. coli BL21 (DE3)
T1 sequence (O80992 14-188): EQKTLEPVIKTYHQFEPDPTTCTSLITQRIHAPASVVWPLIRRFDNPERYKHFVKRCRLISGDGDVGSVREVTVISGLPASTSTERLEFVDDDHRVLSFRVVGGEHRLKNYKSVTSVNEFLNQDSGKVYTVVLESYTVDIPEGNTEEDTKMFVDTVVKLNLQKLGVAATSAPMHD
T1 sequence (Q9CAJ0 172-511 partner limits assumed): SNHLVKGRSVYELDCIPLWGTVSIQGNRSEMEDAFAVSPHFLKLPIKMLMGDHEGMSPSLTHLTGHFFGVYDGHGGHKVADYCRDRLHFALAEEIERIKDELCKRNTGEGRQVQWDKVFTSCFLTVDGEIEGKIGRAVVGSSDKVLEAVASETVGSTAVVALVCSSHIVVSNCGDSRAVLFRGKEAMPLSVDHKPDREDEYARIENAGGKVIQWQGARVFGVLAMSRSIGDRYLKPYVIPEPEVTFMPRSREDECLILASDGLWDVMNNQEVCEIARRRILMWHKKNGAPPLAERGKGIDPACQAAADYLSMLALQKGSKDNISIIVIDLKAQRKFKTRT
As to the kind of experiment: AlphaScreen assay, PYL2 receptor binding to HAB1. The class given is biochemical. The settings on record: fraction of the EC50 of ABA; FIG. 2c, 2e-2g. On the procedure:
The AlphaScreen kit (available from Perkin Elmer) was used, and the method was as follows: a 10× buffer (50 mM MOPS, pH 7.4, 50 mM NaF, 50 mM CHAPS, 0.1 mg/ml bovine serum albumin) diluted at 1:10, each of 100 nM HAB1 with Biotin tag sequence and PYR1/PYL1/PYL2/PYL7/GmPYL6/OsPYL2 protein with dual tags of 6×His and SUMO sequences, corresponding concentrations of (+)-ABA/0224/0304/0706/0708/0713/0715/0428/NC0F4, and 5 μg/ml donor beads and acceptor beads (available from Perkin Elmer) were contained in 150 μl of experimental system. After incubating for 1.5 hours at room temperature in the dark, it was placed into an Envision Plate Reader (available from Perkin Elmer) under the programmed AlphaScreen procedure for readings.
AlphaScreen technology was used to test the ability of the compounds of the present invention to promote PYL receptor binding to PP2C protein phosphatase (HAB1).
A general note: Alpha assays give light when donor and acceptor beads are brought close together.

For assay [2], the system named is soybean. In words: Soil drought experiment, soybean. The class given is in vivo. The method, then: Soybean, cotton and wheat for leaf transpiration experiments were used simultaneously for soil drought experiments, each pot was filled with the same weight of soil to reduce experimental error. All the soybean plants were subjected to a long-day culture at 26° C. 14 days after sowing, watering was stopped and the plants with the consistent growth condition were selected for drought treatment. At the start of the drought, a solution containing 0.1% Tween-20 and 20 μM (+)-ABA/0224/0304 or 0.1% Tween-20 and 0.05% DMSO (control) was sprayed onto the leaf surface once with a spray amount of 4 ml solution/pot. Meanwhile, the position of the pot was changed and re-watered 6 days after the drought, and the photos were taken 1 day after re-watering. The drought experiment of cotton was similar to that of soybeans, watering was stopped 25 days after sowing, the plants with the consistent growth condition were selected for drought treatment. At the start of the drought, a solution containing 0.1% Tween-20 and 20 μM (+)-ABA/0224 or 0.1% Tween-20 and 0.05% DMSO (control) was sprayed onto the leaf surface once with a spray amount of 4 ml solution/pot, and then sprayed once every 3 days. Meanwhile, the position of the pot was changed and re-watered 6 days after the drought, and the photos were taken before re-watering and 1 day after re-watering. In the drought experiment of wheat, the wheat with the consistent growth condition 16 days after sowing was selected for the drought treatment, at the start of the drought, a solution with 0.1% Tween-20 and 100 μM (+)-ABA/0224 or 0.1% Tween-20 and 0.05% DMSO (control) was sprayed once, and then sprayed once every 3 days with a spray amount of 4 ml/pot. Meanwhile, the position of the pot was changed and the photos were taken 6 days after the drought.
Soil drought experiments used for compound 0428 on soybean and maize were similar to that used for compound 0224 on soybeans, with only one plant contained in each pot. All soybean plants were long-day cultured at 26° C. […]

For assay [3], the system named is soybean. As to the kind of experiment: Leaf transpiration experiment, soybean. The class given is in vivo. The settings on record: 20 μM spray 14 days after sowing, two days after spraying; FIG. 5. On the procedure: ABA synthesis mutant aba2-1 was used in Arabidopsis leaf transpiration experiment. […] Therefore, this mutant is used to exclude the effect of endogenous ABA on the transpiration experiment. The plants were sprayed with a solution containing 0.05% tween-20 and corresponding concentrations of (+)-ABA/0224/0304/0706/0715/0428 or 0.05% Tween-20 and 0.05% DMSO (control) after three weeks of continuous watering with an amount of 1.2 ml/pot. Leaf transpiration experiments of soybeans were conducted at 26° C. with long-day lighting and soybeans were sprayed with a solution containing 0.1% tween-20 and 20 μM (+)-ABA/0224/0304 compound or 0.1% Tween-20 and 0.05% DMSO (control) 14 days after sowing with an amount of 4 ml/pot; the leaf transpiration experiments of cottons were sprayed with a solution containing 0.1% tween-20 and 20 μM (+)-ABA/0224 compound or 0.1% Tween-20 and 0.05% DMSO, respectively, 25 days after sowing with an amount of 4 ml/pot; the leaf transpiration experiments of wheats were sprayed with a solution containing 0.1% tween-20 and 100 μM (+)-ABA/0224 compound or 0.1% Tween-20 and 0.05% DMSO (control) 18 days after sowing with an amount of 6 ml/pot. Images were taken daily using the FLIR A655sc thermal imager at the same time before and after spraying.
In this experiment, the temperature change of leaf surface was observed and recorded by an infrared camera, thus reflecting the strength of plant transpiration. The stronger the transpiration, the lower the leaf temperature.

[4] abbreviates: 20 μM sprayed once, re-watering after 6 days of drought, FIG. 8.

Turning to `CCCN1C(=O)OCc2cc(NS(=O)(=O)Cc3c(F)c(F)c(C)c(F)c3F)ccc21` [Compound 0428], the “EC50 value with PYL2 receptor-HAB1 complex as fraction of that of ABA” value (“EC50 value … as fraction of that of ABA” for short) in assay [1] is “about ⅛”. Further, the “growth after drought and re-watering” value with soybean [2] (50 μM sprayed once a day for two days, 9 days of drought, FIG. 14a) was “significantly better growth after re-watering than that in the DMSO-sprayed control group”.
Consider `CC1=CC(=O)CC(C)(C)[C@@]1(O)/C=C/C(C)=C\C(=O)O` [ABA, Abscisic Acid, reference compound], for which, in the assay with soybean [3], the “leaf temperature versus DMSO control (leaf transpiration)” value (from here on “leaf temperature versus DMSO control”) is reported as “had no difference from that in the control group”.
For `Cc1c(F)c(F)c(CS(=O)(=O)Nc2ccc3c(c2)C(C)OC(=O)N3CCCF)c(F)c1F` (centres unmarked) [Compound 0715], the “EC50 value … as fraction of that of ABA” value in assay [1] is “⅕-⅛”.
In the case of `CCN1C(=O)OC(C)c2cc(NS(=O)(=O)Cc3c(F)c(F)c(C)c(F)c3F)ccc21` (centres unmarked) [Compound 0706], in assay [1], the “EC50 value … as fraction of that of ABA” value was “⅕-⅛”.
`CCCN1C(=O)OC(C)c2cc(NS(=O)(=O)Cc3c(F)c(F)c(C)c(F)c3F)ccc21` (centres unmarked) [Compound 0224]: in assay [1], the “EC50 value … as fraction of that of ABA” value is 1/29. Also, in the assay on soybean [3], the “leaf temperature versus DMSO control” value is listed as “significantly reduce the transpiration rate of soybean leaf; also recorded: still significant higher than that of plants in DMSO-sprayed control group”. The “growth after drought and re-watering” value in the assay with soybean [2] (setting [4]) was “significantly better than that of the control group (DMSO) or that of the soybean treated with same concentration of ABA; also recorded: significantly better growth after re-watering than that in the DMSO-sprayed control group and the plants sprayed with the same concentration of ABA”.
Turning to `CCCN1C(=O)OC(C)(C)c2cc(NS(=O)(=O)Cc3c(F)c(F)c(C)c(F)c3F)ccc21` [Compound 0304], the “EC50 value … as fraction of that of ABA” value in assay [1] is on record as 1/15. Also, the “leaf temperature versus DMSO control” value in the assay on soybean [3] is given as “significantly reduce the transpiration rate of soybean leaf; also recorded: still significant higher than that of plants in DMSO-sprayed control group”. Moreover, the “growth after drought and re-watering” value in the assay with soybean [2] (setting [4]) is “significantly better than that of the control group (DMSO) or that of the soybean treated with same concentration of ABA; also recorded: significantly better growth after re-watering than that in the DMSO-sprayed control group and the plants sprayed with the same concentration of ABA”.
